Test results as given in US20140308298A1, “Diagnostic and Treatment of an Androgen-Independent Prostate Cancer” (UNIVERSITE D'AIX MARSEILLE, priority 2011, published 2014).

Tests used:
Du145 cells [1] = experiment: Western blot of phosphorylated cRaf, MEK1/2, ERK and Akt in Du145 cells; type: cell-based, human
Experimental: (§1) FIG. 2: Adrenomedullin stimulates Du145 cell proliferation and invasion in vitro. A, AM induced cAMP formation in cultured Du145 cells. Cells (3×10^4 cells/ml) were treated with AM (10^−9 M-10^−7 M) for different times. Each value is the mean±SEM of three independent experiments performed in quadruplate (*, p<0.05; **, p<0.01; ***, p<0.001). B, oppose effects of AM and αAM on the growth of Du145 cells in vitro. For proliferation assays, Du145 cells were seeded at the density of 1×10^4 per well in 6 multiwell plates in presence of RPMI 1640 medium supplemented with 5% FBS. AM at 10^−7 M and αAM (70 μg/ml) were added. As control, rabbit control IgG (70 μg/ml) of irrelevant specificity was used. For each treatment, three wells were prepared, exposed to trypsin and cells were counted in Coulter Counter. Each bar represents the mean±SEM of four independent experiments (**, p<0.01; ***, p<0.001). C, AM stimulates Du145 cells invasion in vitro. Du145 cells (1.5×10^4 cells) were added into Biocoat Matrigel invasion upper chamber and 10^−7 M of AM were added into the lower chamber, and after 6 h, noninvaded cells in the upper membrane were removed and cells invading into the lower membrane were quantified by fluorescence by adding DAPI reagent at least 45 min before taking the reading. RPMI 1640 containing 2% FBS was used as control. bFGF was used as positive control. Data are expressed as the number of migrated cells in 10 high-power fields and are the means of results from three independent experiments. Each bar represents the mean±SEM (**, p<0.01; ***, p<0.001). D, intracellular signalling pathway induced by AM in Du145 cells. Western blot analysis of phosphorylated cRAF (pcRAF), pMEK1/2, pERK (44 and 42 kDa) and ERK in Du145 cells, stimulated with AM (5×10^−7 M) for 2, 5, 10, 20, and 30 min. AM (5×10^−7 M)-induced phosphorylation of ERK was inhibited by mitogen-activated protein kinase kinase inhibitor, U0126 (10 μM, 30 min). EGF was used as positive control known to stimulate phosphorylation of cRAF, MEK, and ERK. To assess the amount of proteins loaded for each sample, immunoblot analysis was performed with anti-α-actin.
Western blotting analysis: Cell extracts were prepared and processed for CLR, RAMP2 and RAMP3 western blot analysis as described (29). Immunoblotting of phospho-c-Raf, phospho-MEK1/2, phospho-ERK1/2, and ERK1/2 was performed using MAPK-phospho-ERK1/2 pathway samples kit (Cell Signaling Technologie, Inc.).

Du145 cells [2] = experiment: Cyclic AMP assay in Du145 cells; type: cell-based, human
Experimental: as §1, with “To assess the amount of proteins loaded for each sample, immunoblot analysis was performed with anti-α-actin.” left out

Du145 cells [3] = experiment: Matrigel invasion assay (modified Boyden chamber), Du145 cells; type: cell-based, human
Experimental: as §1, with “C, AM stimulates Du145 cells invasion in vitro.” left out, “RPMI 1640 containing 2% FBS was used as control. bFGF was used as positive control.” left out, “Each bar represents the mean±SEM (**, p<0.01; ***, p<0.001). D, intracellular signalling pathway induced by AM in Du145 cells. Western blot analysis of phosphorylated cRAF (pcRAF), pMEK1/2, pERK (44 and 42 kDa) and ERK in Du145 cells, stimulated with AM (5×10^−7 M) for 2, 5, 10, 20, and 30 min. AM (5×10^−7 M)-induced phosphorylation of ERK was inhibited by mitogen-activated protein kinase kinase inhibitor, U0126 (10 μM, 30 min). EGF was used as positive control known to stimulate phosphorylation of cRAF, MEK, and ERK. To assess the amount of proteins loaded for each sample, immunoblot analysis was performed with anti-α-actin.” left out

[4] = system: lymphatic endothelial cells; experiment: LEC death after serum deprivation; type: cell-based, human; conditions: AM 10^-7 M
Experimental: FIG. 12. AM is a growth factor survival for lymphatic endothelial cells. Time course of LEC death after DMEM serum deprivation in the absence and presence of AM (10^−7M). Exponentially growing cells were changed into serum-free medium, and all floating cells after 12, 24 and 48 h were counted with a coulter counter. Each point and bar represents mean±SEM (n=6); values were normalized to the total number of floating dead cells 48 h after serum deprivation in the absence of AM, which was set at 100%. **, p<0.01.

LNCaP cells [5] = experiment: Cell proliferation assay, LNCaP cells; type: cell-based, human; conditions: AM 2×10^-7 M; 5% FBS
Experimental: (§2) FIG. 10: Effect of AM and αAM on LNCaP cells in vitro. A, total RNA (1 μg) DNA-free from LNCaP cell line was reverse transcribed into cDNA and subjected to real-time quantitative reverse transcription (RT)-PCR for the estimation of relative CLR, RAMP2 and RAMP3 mRNAs to 18S rRNA ratio. B, effects of AM and αAM on LNCaP cells growth in vitro. For proliferation assay, LNCaP cells were seeded and treated in the presence of 5% FBS as described for PC3 cells in FIG. 9. C, no effects of AM on LNCaP cells invasion in vitro. For invasion assays, LNCaP cells (5×10^4 cells) were seeded on a Matrigel layer in a boyden chamber assay and analyzed as described for PC3 cells in FIG. 9.
Cell proliferation assay: The effects of AM, αAM and control IgG on cell proliferation was examined at the indicated time points as described (19).

human LEC = experiment: Proliferation, migration and invasion of human LECs in vitro; type: cell-based; conditions: AM 10^-7 M; proliferation 6 days, migration 20 h, invasion 48 h
Experimental: Neonatal Human Dermal Lymphatic Microvascular Endothelial Cells (HMVEC-dLyNeo) were purchased from Lonza (Lonza, Basel, Switzerland), and expanded in microvascular endothelial cell growth medium-2 (EGM-2MV, Lonza) with growth supplements (EGM-2MV, Lonza). A, total RNA (1 μg) DNA-free from LECs was reverse transcribed into cDNA and subjected to real-time quantitative reverse transcription (RT)-PCR for the estimation of relative AM, CLR, RAMP2 and RAMP3 mRNAs to 18S rRNA ratio. B, oppose effect of AM and αAM on the growth of LECs in vitro. For proliferation assay, LECs were seeded at the density of 3.5×10^4 per well in 6 multiwell plates in the presence of EBM-2 medium supplemented with 0.5% FBS. AM (10^−7 M) and αAM (70 μg/ml) were added for 6 days treatment. After treatment, cells were exposed to trypsin and were prepared for cell number counting in a coulter counter. […] Cells migrating through the filter were counted after 20 h (C) and those migrating in presence of Matrigel were counted after 48 h (D). Data are expressed as the number of migrated cells in 10-high-power fields, and the values represent the mean±SEM of three independent experiments each performed in triplicate (*p<0.05; **p<0.01; ***p<0.001).
Cell migration and invasion assays: The migration and chemoinvasion were assessed using a modified Boyden chamber assay (7). […]

PC-3 cells [6] = experiment: Cell proliferation assay, PC3 cells; type: cell-based, human; conditions: AM 10^-7 M or αAM 70 μg/ml; 2% FBS
Experimental: (§3) FIG. 9: Effect of AM on PC3 cells in vitro. A, expression of AMR mRNAs in PC3 cells. Total RNA (1 μg) DNA-free from PC3 cell line was reverse transcribed into cDNA and subjected to real-time quantitative reverse transcription (RT)-PCR for the estimation of relative CLR, RAMP2 and RAMP3 mRNAs to 18S rRNA ratio. B, effects of AM and αAM on the growth of PC3 cells in vitro. For proliferation assays, PC3 cells were seeded at the density of 2×10^4 per well in 24 multiwell plates in the presence of RPMI 1640 medium supplemented with 2% FBS. AM at 10^−7M or αAM (70 μg/ml) were added. As control, rabbit control IgG (70 μg/ml) of irrelevant specificity was used. For each treatment, six wells were prepared, exposed to trypsin and cells were counted in Coulter Counter. Each bar represents the mean±SEM of four independent experiments. […] PC3 cells (3×10^4 cells) were added into Biocoat Matrigel invasion upper chamber and 10^−7 M of AM were added into the lower chamber, and after 6 h, non-invaded cells in the upper membrane were removed and cells invading into the lower membrane were quantified by fluorescence by adding DAPI reagent 45 min before taking the reading. Data are expressed as the number of migrated cells in 10 high-power fields and are the means of results from three independent experiments each performed in triplicate. bFGF was used as positive control. […]

LNCaP cells [7] = experiment: Matrigel invasion assay (modified Boyden chamber), LNCaP cells; type: cell-based, human
Experimental: as §2
Cell migration and invasion assays: The migration and chemoinvasion were assessed using a modified Boyden chamber assay (7). Du145 (15×10^−3), LNCaP (50×10^−3), and PC3 (30×10^−3) cells were added to the upper compartment during 6 h. For LECs, (30×10^−3) cells were added during 48 h for invasion and 20 h for migration.

Du145 cells [8] = experiment: Cell proliferation assay, Du145 cells; type: cell-based, human; conditions: AM 10^-7 M
Experimental: as §1, with “C, AM stimulates Du145 cells invasion in vitro.” left out, “RPMI 1640 containing 2% FBS was used as control. bFGF was used as positive control.” left out, “Each bar represents the mean±SEM (**, p<0.01; ***, p<0.001). D, intracellular signalling pathway induced by AM in Du145 cells. Western blot analysis of phosphorylated cRAF (pcRAF), pMEK1/2, pERK (44 and 42 kDa) and ERK in Du145 cells, stimulated with AM (5×10^−7 M) for 2, 5, 10, 20, and 30 min. AM (5×10^−7 M)-induced phosphorylation of ERK was inhibited by mitogen-activated protein kinase kinase inhibitor, U0126 (10 μM, 30 min). EGF was used as positive control known to stimulate phosphorylation of cRAF, MEK, and ERK. To assess the amount of proteins loaded for each sample, immunoblot analysis was performed with anti-α-actin.” left out

PC-3 cells [9] = experiment: Matrigel invasion assay (modified Boyden chamber), PC3 cells; type: cell-based, human; conditions: AM 10^-7 M, 6 h
Experimental: as §3

With `N#CC(=C(/N)Sc1ccccc1N)/C(C#N)=C(\N)Sc1ccccc1N` [U0126] the “inhibition of p-ERK induced by AM” value (Du145 cells [1]; U0126 10 μM, 30 min, AM 5×10^-7 M) was “completely inhibited”.

In the case of adrenomedullin [AM], the “time at which cAMP increase reached a maximum” value (Du145 cells [2]; AM 10^-7 M) is reported as 5 min, the “increase in cAMP content” value (Du145 cells [2]; AM 10^-7 M, IBMX 10^-4 M) is reported as 2.8±0.14 fold and the “stimulation of cAMP formation with graded concentration” value (Du145 cells [2]; AM 10^-9-10^-7 M, 5 min) is reported as “dose-dependent stimulation”. For the same compound, the “increase of invasion compared with control” value (Du145 cells [3]; AM 10^-7 M in bottom wells, 6 h) was 92±22%, the “apoptosis (floating cells) after serum deprivation” value ([4]; persisted during 48 h, LECs) was “prevented the apoptosis” and the “apoptotic cell death of adherent culture” value ([4]; serum deprived LECs) was “markedly suppressed”. For the same compound, the “growth rates of LNCaP cells versus control cells” value (LNCaP cells [5]) was “slight decrease in the growth rates”, the “levels of p-MEK and p-ERK” value (Du145 cells [1]; AM 5×10^-7 M, as early as 2 and 5 min, sustained up to 30 min) was “significantly increased” and the cRaf phosphorylation (Du145 cells [1]; AM 5×10^-7 M, as early as 2 min, control levels up to 10 min) was “increased cRaf phosphorylation”. For the same compound, the “level of p-Akt” value (Du145 cells [1]; AM stimulation) was “not markedly increased”, the “effect of AM on LECs” value (human LEC) was “induces proliferation, migration and invasion of LECs” and the “proliferative response of PC-3 cells” value (PC-3 cells [6]) was “no proliferative responses”. For the same compound, the “effect on LNCaP cells invasion” value (LNCaP cells [7]) was “No effect”, the “stimulation of proliferation compared with untreated cells” value (Du145 cells [8]; 6 days) was 51±9.9% and the “stimulation of proliferation compared with untreated cells” value (Du145 cells [8]; 8 days) was 96±14.6%. It also gave an induction of invasion (PC-3 cells [9]) of 144±7.6%.

With “bFGF: Growth factor used as positive control in invasion and migration assays” the “effect on invasion relative to AM” value (Du145 cells [3]; bFGF 10^-6 M, positive control) was “similar”.
